Target: T1, EZH2 within the PRC2 complex (Homo sapiens, UniProt Q15910)
T1 construct: FLAG; made in house; host or cells: Sf9 cells
Test: EZH2 methyltransferase scintillation proximity assay (SPA), PRC2 complex
Assay type: biochemical
Settings: inhibition of methyltransferase activity, 3H-SAM, HeLa mononucleosome substrate, foregoing or an analogous assay
Description: Compounds contained herein were evaluated for their ability to inhibit the methyltransferase activity of EZH2 within the PRC2 complex. Human PRC2 complex was prepared by co-expressing each of the 5 member proteins (FLAG-EZH2, EED, SUZ12, RbAp48, AEBP2) in Sf9 cells followed by co-purification. Enzyme activity was measured in a scintillation proximity assay (SPA) where a tritiated methyl group is transferred from 3H-SAM to a lysine residue on Histone H3 of a mononucleosome, purified from HeLa cells. Mononucleosomes were captured on SPA beads and the resulting signal is read on a ViewLux plate reader.
Part A. Compound Preparation
Prepare 10 mM stock of compounds from solid in 100% DMSO. • 2. Set up an 11-point serial dilution (1:3 dilution, top concentration 10 mM) in 100% DMSO for each test compound in a 384 well plate leaving columns 6 and 18 for DMSO controls. • 3. Dispense 100 nL of compound from the dilution plate into reaction plates (Grenier Bio-One, 384-well, Cat#784075). Part B. Reagent Preparation Prepare the following solutions: • 1. […] Read plates • 1. Read the assay plates on the Viewlux Plate Reader utilizing the 613 nm emission filter with a 300 s read time. […]
Percent inhibition was calculated relative to the DMSO control for each compound concentration and the resulting values were fit using standard IC50 fitting parameters within the ABASE data fitting software package.

T1 sequence (Q15910 whole entry): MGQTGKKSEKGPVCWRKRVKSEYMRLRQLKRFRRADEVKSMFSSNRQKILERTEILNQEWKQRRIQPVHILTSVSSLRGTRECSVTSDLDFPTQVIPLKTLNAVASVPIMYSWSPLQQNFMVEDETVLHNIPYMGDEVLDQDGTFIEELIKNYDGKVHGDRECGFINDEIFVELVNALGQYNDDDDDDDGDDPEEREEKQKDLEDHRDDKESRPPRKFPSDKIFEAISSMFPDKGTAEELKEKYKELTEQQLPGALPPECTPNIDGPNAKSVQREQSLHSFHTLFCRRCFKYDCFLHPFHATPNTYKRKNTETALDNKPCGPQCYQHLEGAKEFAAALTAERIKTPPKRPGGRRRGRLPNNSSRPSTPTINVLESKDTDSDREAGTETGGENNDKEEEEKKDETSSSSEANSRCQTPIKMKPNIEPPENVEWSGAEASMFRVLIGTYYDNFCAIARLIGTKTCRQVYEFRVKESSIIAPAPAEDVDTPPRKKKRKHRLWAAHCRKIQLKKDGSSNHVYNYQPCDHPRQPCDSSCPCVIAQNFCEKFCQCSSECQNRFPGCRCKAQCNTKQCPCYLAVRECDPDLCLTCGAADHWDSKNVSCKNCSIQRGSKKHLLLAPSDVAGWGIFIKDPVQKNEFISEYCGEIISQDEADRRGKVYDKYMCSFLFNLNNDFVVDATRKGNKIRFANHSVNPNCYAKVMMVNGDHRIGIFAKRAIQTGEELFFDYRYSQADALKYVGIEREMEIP
T1 sequence (O75530 whole entry partner): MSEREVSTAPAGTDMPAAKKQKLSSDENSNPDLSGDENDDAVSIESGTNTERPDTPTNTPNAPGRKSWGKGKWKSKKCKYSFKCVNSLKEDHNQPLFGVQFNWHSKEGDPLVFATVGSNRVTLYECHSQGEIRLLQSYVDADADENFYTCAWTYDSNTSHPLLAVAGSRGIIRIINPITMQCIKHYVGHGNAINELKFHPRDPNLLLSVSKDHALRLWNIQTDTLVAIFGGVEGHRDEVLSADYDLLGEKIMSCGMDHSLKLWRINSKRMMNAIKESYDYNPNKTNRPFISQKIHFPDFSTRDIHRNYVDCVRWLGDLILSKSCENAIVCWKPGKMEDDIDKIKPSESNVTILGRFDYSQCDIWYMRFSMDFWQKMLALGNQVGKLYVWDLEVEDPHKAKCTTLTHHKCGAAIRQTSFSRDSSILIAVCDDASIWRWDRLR
T1 sequence (Q15022 whole entry partner): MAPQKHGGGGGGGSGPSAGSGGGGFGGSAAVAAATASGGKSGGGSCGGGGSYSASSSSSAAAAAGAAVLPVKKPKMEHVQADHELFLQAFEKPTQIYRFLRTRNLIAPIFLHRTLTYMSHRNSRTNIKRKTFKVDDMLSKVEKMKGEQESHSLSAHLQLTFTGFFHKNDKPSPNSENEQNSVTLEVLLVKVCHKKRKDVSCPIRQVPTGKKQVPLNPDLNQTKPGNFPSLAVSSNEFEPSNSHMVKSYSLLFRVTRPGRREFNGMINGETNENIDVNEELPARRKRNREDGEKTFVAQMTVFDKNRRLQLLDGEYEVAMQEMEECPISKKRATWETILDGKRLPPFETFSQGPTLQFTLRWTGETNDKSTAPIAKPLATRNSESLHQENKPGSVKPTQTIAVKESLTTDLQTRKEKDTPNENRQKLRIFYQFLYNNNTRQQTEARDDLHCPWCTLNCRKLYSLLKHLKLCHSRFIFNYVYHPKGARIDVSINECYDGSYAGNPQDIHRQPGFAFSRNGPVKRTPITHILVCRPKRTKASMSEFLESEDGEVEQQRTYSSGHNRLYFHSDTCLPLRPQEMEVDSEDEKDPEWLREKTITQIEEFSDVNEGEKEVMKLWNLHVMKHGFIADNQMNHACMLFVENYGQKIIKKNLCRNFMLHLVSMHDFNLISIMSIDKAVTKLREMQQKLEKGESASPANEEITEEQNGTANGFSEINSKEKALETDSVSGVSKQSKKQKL
T1 sequence (Q09028 whole entry partner): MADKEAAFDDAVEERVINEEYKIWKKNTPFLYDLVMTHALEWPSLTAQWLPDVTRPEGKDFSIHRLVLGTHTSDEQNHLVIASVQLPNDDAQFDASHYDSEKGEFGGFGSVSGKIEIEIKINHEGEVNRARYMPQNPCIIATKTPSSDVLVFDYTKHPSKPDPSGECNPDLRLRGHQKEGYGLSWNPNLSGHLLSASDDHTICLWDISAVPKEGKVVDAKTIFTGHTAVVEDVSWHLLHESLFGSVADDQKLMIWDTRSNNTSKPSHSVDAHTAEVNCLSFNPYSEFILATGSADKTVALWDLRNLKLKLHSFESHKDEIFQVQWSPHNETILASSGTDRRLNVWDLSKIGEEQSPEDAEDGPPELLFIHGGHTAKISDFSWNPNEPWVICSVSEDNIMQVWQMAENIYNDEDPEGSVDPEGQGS
T1 sequence (Q6ZN18 whole entry partner): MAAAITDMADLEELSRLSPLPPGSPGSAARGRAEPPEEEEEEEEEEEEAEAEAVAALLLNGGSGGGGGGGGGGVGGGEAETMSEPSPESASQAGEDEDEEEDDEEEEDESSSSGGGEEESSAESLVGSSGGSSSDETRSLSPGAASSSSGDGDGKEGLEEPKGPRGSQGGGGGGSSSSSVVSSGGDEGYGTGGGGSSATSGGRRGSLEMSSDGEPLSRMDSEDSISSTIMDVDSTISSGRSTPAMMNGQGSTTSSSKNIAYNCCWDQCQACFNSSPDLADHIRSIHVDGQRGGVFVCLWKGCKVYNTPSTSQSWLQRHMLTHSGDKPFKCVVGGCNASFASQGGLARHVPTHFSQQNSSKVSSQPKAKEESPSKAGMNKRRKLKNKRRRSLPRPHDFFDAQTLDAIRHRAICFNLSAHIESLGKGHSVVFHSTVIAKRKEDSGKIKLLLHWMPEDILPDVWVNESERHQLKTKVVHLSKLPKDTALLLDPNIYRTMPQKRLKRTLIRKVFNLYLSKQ

Substance | IC50 [nM]
6-{[4-(Aminocarbonyl)phenyl]amino}-N-[(4,6-dimethyl-2-oxo-1,2-dihydro-3-pyridinyl)methyl]-1-(1-methylethyl)-1H-pyrazolo[3,4-b]pyridine-4-carboxamide [Ex 86] | 142
N-[(4,6-Dimethyl-2-oxo-1,2-dihydro-3-pyridinyl)methyl]-1-(1-methylethyl)-6-(2-phenylethyl)-1H-pyrazolo[3,4-b]pyridine-4-carboxamide [Ex 32] | 856
